In patent US8017649B2, “Flavonoid compounds and uses thereof” (Howard Florey Institute of Experimental Physiology and …, priority 2005, dated 2011):
Entries after “also recorded” stand apart in the source; their conditions may differ.

Key:
conscious rats = experiment: Endothelin-1-induced ischaemic stroke in conscious rats; type: in vivo, rat; details: for hemineglect (sticky tape) test latency / infarct in cortex / infarct in striatum: DiOHF 10 mg/kg or DiOHF3HA 15 mg/kg/day i.v.; for infarct in cortex / infarct in striatum: 72 h
Protocol: Ischaemic stroke was studied in conscious rats, with daily monitoring of neurological function and post mortem morphological assessment of cerebral infarcts at 72 hours alter stroke. Unilateral, transient cerebral ischaemia and reperfusion was induced in conscious rats by injection of the potent vasoconstrictor endothelin-1 outside but close to the right middle cerebral artery MCA, (via a pre-implanted guide tube). The ensuing stroke was graded on a scale of 0 to 5 by immediate behaviour, and potential neuroprotective compounds were injected intravenously 3 h after the stroke, and at 24 hour intervals thereafter.
Male Hooded Wistar rats (280-340 g) were anaesthetised with pentobarbitone sodium in a volume of 0.6 ml (60 mg/kg i.p.) for insertion of an intravenous (i.v.) catheter into the jugular vein for acute drug administration, A 23-gauge stainless steel guide cannula was then stereotaxically implanted into the piriform cortex 2 mm dorsal to the right MCA (0.2 mm anterior, −5.2 mm lateral and −5.9 mm ventral). The cannula was secured with dental acrylate cement and two small screws inserted into the skull. The scalp was closed with sutures. Rats were housed individually on a 12 h day/night cycle at a temperature of 18-22° C. and allowed to recover for 5 days before induction of stroke.
Vaso constriction of the right middle cerebral artery (MCA) was induced in conscious rats by administration of the potent vasoconstrictor agent endothelin-1 (ET-1) (60 pmol in 3 μl of saline over 10 min) via a 30-gauge injector that protruded 2 mm beyond the end of the previously implanted stereotaxic guide cannula. The injector was held in place by a poly-tubing cuff and the rat was placed in a clear Plexiglass box for observation during ET-1 injection. During stroke induction we observed counter-clockwise circling, clenching and dragging of the contralateral forepaw, validating the correct placement of the cannula. These behavioural changes occurred within 2 to 10 minutes of the commencement of the ET-1 injection and similar behaviours have been reported by other researchers employing this model. We have assigned a rating scale of stroke severity based on these behavioural changes during stroke and have shown that vehicle-treated rats assigned with higher stroke ratings have greater infarct volumes and neurological deficits. […] Rectal temperatures were taken with a thermistor probe, prior to stroke and at 30- or 60-minute intervals for 3 hours after stroke.
All behavioural tests were conducted prior to any procedures (pre-surgery, day 1), immediately prior to ET-1-induced MCA occlusion (pre-ischemia, day 6) and 24, 48 and 72 hours after ET-1-induced MCA occlusion. The behaviour of each rat was compared to pre-stroke, thus each rat acted as its own control. All rats were coded so that the investigator was blinded to treatment condition. Neurological abnormalities were evaluated with the use of a neurological deficit score based on detection of abnormal posture and hemiplegia. Abnormal pastures were assessed by suspending rats by the tail and scoring twisting of the thorax and extension of the forelimbs. Hemiplegia was evaluated when rats were placed on a raised platform. Deficits were deemed to be present when the hind limb contralateral to the infarcted hemisphere slipped off the edge of the platform and/or when the contralateral forelimb slipped off when the snout and whiskers were not in contact with the surface. All behaviours were scored on the following scale: 0=no deficit; 1=slight; 2=moderate; and 3=severe. Thus, when scores were totalled the maximum neurological deficit score was 12. A score of 0 was considered normal.
Sensory hemi-neglect was evaluated using a test consisting of placing adhesive tapes (Avery adhesive label, […] circles) on the distal-radial region of each wrist, Placement of the first tape was randomised between contralateral and ipsilateral limbs. […]

anaesthetised rats = experiment: Arterial pressure and heart rate in anaesthetised rats after intravenous injection; type: in vivo, rat; details: for change in heart rate (HR) / change in mean arterial pressure (MAP): intravenous, anaesthetised rats
Protocol: A unit dosage of an aqueous solution of 3-hydroxyflavone-3-hemiadipate (15) was administered to a group of male anesthetized Sprague Dawley rats intravenously and the blood pressure monitored over a period of time.
Male Sprague-Dawley rats (250-350 g) were anaesthetised with pentobarbitone sodium (60 mg kg^−1, ip). The trachea was isolated and cannulated with polyethylene tracheal tube (I.D. 2.0 mm), and the rat was allowed to breathe spontaneously.
The right carotid artery was cannulated and connected with a heparinised saline filled cannula (O.D. 0.75, I.D, 0.58 mm) and connected to a pressure transducer. Mean and phasic arterial pressure were continuously measured and recorded on a polygraph. The heart rate, was derived from the phasic arterial pressure using a tachometer.
DiOHF3HA ([…]) was injected intravenously, allowing at least 30 min between injections, and the peak changes in mean arterial pressure and heart rate measured. […] In a separate group of experiments ACh (0.3 mg/kg iv) and phenylephrine (PE, […]) were injected before and 30 minutes after DiOHF3HA (3 mg/kg iv), a time when arterial pressure and heart rate had returned to control levels. […]

rat aortic rings = experiment: Relaxation of rat aortic rings in response to A23187 or isoprenaline; type: cell-based; details: 0.1 mM, absence or presence of cholinesterase
[1] = mild to moderate strokes, DiOHF 10 mg/kg or DiOHF3HA 15 mg/kg/day i.v. from 3 h post-stroke
[2] = all stroke grades (2-4), DiOHF3HA 15 mg/kg/day
[3] = 30 min after DiOHF3HA 3 mg/kg iv

| SMILES | hemineglect (sticky tape) test latency (conscious rats; mild to moderate strokes) | neurological deficit score (conscious rats; [1]) | infarct in cortex (conscious rats; mild to moderate strokes) | infarct in striatum (conscious rats; mild to moderate strokes) | change in heart rate (HR) (anaesthetised rats) | change in mean arterial pressure (MAP) (anaesthetised rats) | relaxation in response to A23187 or isoprenaline (rat aortic rings) | area of damage in the striatum (conscious rats; all stroke grades (2-4), DiOHF3HA 15 mg/kg) | infarct area through the cortex (conscious rats; all stroke grades (2-4), DiOHF3HA 15 mg/kg i.v.) | body weight following stroke (conscious rats; [2]) | core temperature following intravenous injection (conscious rats; [2]) | hemineglect (sticky label) test latency (conscious rats; [2]) | neurological deficit score (conscious rats; all stroke grades (2-4), DiOHF3HA 15 mg/kg/day, 24, 48 or 72 hours) | body weight following stroke (conscious rats; mild to moderate strokes, DiOHF3HA 15 mg/kg/day) | PE-induced increase in arterial pressure (anaesthetised rats; [3]) | depressor response to ACh (anaesthetised rats; [3]) |
| --- | --- | --- | --- | --- | --- | --- | --- | --- | --- | --- | --- | --- | --- | --- | --- | --- |
| O=c1c(O)c(-c2ccc(O)c(O)c2)oc2ccccc12 [DiOHF, 3′,4′-Dihydroxyflavonol, reference compound] | abolished the increase in hemineglect scores | reduced the neurological deficits at 48 and 72 h; also recorded: significantly improved neurological outcome | reduced the volume of infarct produced in the cerebral cortex; also recorded: significantly reduced the area of infarct | completely prevented an infarct developing in the striatum; also recorded: significantly reduced the area of infarct | dose-dependent decrease in HR | dose-dependent decreases in MAP |  |  |  |  |  |  |  |  |  |  |
| O=C(O)CCCCC(=O)Oc1c(-c2ccc(O)c(O)c2)oc2ccccc2c1=O [DiOHF3HA, 3′,4′-dihydroxyflavone-3-hemiadipate] | abolished; also recorded: significantly restored neurological function in the hemineglect test | no effect on neurological deficit scores | significantly reduced | significantly reduced the area of infarct through the striatum | dose-dependent decrease in HR; also recorded: dose-dependent decreases; also recorded: concentration dependent decreases | dose-dependent decrease in MAP; also recorded: dose-dependent decreases; also recorded: concentration dependent decreases | no effect on endothelium-dependent relaxation | reduced the area of damage in the striatum | significantly reduced | no significant weight loss | not significantly different from pre-stroke temperature | abolished; also recorded: significantly improved neurological function in the hemineglect test | measurably improved neurological deficit scores | did not lose weight | diminished; also recorded: attenuated the PE-induced increase in arterial pressure | significantly enhanced the depressor response to ACh |
